Experimental data: ChEMBL document CHEMBL4321827, “Development and Therapeutic Potential of Selenazo Compounds” (J Med Chem, 2020)
pIC50, pKi: −log10 of the molar value.

Legend:
[1] = biological target: Histone deacetylase 5 (Homo sapiens, UniProt Q9UQL6); test: Inhibition of human recombinant HDAC5 using acetyl-Lys(trifluoroacetyl)-AMC substrate by fluorescence based assay
[2] = biological target: T1, Protein deacetylase HDAC6 (Homo sapiens, UniProt Q9UBN7); test: Inhibition of human recombinant HDAC6 using RHKKAc-AMC substrate by fluorescence based assay
T1 sequence (Q9UBN7 whole entry): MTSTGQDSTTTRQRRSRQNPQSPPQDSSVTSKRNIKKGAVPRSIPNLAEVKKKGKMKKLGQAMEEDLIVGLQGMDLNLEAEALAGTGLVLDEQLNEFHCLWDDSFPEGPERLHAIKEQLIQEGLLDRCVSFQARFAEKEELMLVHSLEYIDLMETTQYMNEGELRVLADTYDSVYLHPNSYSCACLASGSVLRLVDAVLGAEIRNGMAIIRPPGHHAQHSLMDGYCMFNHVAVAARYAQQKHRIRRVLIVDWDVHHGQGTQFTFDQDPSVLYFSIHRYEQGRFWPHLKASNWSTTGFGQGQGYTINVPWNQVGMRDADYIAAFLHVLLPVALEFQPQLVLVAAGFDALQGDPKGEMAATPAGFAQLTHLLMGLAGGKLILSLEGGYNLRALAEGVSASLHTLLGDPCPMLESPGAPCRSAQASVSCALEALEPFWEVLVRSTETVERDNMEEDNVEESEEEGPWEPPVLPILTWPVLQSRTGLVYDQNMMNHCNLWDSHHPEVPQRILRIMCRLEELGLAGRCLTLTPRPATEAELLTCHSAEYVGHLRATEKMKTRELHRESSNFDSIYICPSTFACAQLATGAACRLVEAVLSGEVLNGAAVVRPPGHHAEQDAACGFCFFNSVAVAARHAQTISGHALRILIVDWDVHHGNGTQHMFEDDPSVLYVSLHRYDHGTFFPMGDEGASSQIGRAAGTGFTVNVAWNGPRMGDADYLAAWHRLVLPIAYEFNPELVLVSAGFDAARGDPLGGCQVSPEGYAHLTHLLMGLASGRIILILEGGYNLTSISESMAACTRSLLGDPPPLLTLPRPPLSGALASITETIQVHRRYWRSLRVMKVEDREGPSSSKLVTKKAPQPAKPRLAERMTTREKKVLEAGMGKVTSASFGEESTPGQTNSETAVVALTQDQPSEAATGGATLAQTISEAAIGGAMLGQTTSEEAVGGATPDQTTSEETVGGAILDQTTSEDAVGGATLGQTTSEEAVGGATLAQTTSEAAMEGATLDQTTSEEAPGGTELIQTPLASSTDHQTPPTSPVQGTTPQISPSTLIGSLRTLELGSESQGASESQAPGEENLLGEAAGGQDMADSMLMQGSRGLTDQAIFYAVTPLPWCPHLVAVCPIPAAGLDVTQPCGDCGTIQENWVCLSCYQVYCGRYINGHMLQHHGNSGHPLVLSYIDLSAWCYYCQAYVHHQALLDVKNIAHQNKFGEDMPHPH

[3] = biological target: Histone deacetylase 9 (Homo sapiens, UniProt Q9UKV0); test: Inhibition of human recombinant HDAC9 using acetyl-Lys(trifluoroacetyl)-AMC substrate by fluorescence based assay
Sequence of Histone deacetylase 9 (Q9UKV0 whole entry, the tested form may be a part): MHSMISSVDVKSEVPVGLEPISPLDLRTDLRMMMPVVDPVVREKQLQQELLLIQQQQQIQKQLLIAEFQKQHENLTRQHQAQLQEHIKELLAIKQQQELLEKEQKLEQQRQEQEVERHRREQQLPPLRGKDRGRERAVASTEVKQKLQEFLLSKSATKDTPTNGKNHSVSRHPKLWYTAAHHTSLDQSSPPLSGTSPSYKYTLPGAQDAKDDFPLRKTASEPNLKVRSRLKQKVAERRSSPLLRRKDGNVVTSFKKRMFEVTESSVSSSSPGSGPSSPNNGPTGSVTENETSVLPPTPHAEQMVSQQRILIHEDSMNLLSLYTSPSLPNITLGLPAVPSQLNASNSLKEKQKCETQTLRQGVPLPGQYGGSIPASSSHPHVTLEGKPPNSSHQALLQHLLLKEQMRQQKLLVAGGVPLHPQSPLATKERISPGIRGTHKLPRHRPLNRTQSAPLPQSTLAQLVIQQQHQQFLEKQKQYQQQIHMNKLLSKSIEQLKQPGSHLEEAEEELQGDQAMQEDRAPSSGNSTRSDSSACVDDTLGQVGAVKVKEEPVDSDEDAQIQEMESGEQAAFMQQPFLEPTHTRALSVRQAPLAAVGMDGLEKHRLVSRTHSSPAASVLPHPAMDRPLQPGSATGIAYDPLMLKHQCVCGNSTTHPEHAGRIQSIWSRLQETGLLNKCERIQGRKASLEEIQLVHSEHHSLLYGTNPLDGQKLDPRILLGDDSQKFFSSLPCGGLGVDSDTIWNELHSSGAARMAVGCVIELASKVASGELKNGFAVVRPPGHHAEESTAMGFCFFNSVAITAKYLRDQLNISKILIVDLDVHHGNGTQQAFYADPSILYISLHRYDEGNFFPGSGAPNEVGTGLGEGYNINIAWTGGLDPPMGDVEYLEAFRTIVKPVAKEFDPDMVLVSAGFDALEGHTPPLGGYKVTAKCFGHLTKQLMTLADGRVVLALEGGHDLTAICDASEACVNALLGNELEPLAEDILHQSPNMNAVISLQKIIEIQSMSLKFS

[4] = species: Rattus norvegicus; test: Effect on SOD activity in brain of rat with ischemia/reperfusion injury assessed as enzyme activity per mg protein; format: functional
[5] = Inhibition of inositol monophosphatase (unknown origin); set-up: species or system Homo sapiens
[6] = Inhibition of Bacillus anthracis TrxR
[7] = Inhibition of Candida albicans H+-ATPase
[8] = Inhibition of Aspergillus fumigatus TrxR
[9] = system: Cryptosporidium parvum; test: Substrate activity at Cryptosporidium parvum glucose 6-phosphate isomerase

Sequence of Histone deacetylase 5 (Q9UQL6 whole entry): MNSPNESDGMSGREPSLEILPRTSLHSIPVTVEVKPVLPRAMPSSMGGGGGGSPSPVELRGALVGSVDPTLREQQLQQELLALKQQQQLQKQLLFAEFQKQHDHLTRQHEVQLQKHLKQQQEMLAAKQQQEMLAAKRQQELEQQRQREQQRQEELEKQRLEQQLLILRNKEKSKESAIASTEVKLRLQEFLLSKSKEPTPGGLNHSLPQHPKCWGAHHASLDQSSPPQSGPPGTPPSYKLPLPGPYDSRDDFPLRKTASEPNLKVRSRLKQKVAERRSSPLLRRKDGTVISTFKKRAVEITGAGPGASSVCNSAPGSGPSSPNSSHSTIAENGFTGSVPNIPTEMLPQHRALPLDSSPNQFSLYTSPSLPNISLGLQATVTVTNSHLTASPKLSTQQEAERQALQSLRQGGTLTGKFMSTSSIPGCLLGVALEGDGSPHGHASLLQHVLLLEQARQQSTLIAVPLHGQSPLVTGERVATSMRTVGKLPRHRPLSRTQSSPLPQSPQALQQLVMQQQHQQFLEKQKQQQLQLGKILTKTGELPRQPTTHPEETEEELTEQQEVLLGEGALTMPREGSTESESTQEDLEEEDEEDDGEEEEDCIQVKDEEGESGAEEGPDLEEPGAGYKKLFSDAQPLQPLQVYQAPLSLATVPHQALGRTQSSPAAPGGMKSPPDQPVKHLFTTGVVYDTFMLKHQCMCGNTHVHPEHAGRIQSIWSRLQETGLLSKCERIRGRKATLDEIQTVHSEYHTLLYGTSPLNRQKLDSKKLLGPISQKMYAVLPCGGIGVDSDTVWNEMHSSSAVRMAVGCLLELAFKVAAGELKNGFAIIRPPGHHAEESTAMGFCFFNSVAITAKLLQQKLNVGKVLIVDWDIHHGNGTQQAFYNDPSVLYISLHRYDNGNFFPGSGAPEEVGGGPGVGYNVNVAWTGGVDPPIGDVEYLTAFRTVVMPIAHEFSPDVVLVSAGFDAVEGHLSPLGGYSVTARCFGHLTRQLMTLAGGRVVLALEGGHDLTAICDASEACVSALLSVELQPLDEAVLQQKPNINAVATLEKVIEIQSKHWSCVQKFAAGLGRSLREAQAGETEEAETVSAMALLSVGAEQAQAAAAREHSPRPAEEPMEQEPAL

O=c1c2ccccc2[se]n1-c1ccccc1 [EBSELEN]
pIC50 [1]: 5.47
pIC50 [2]: 5.16
pIC50 [3]: 5.43
Activity [4]: 0.105 U
pIC50 [5]: 5.82
pIC50 [6]: 6.00
pIC50 [7]: 5.41
pKi [8]: 6.66
Km [9]: 309 µM
